ChEMBL document CHEMBL4270663, “6-Benzhydryl-4-amino-quinolin-2-ones as Potent Cannabinoid Type 1 (CB1) Receptor Inverse Agonists and Chemical Modifications for Peripheral Selectivity” (J Med Chem, 2018)
Active and inactive are the calls of the source. No cut-off for these calls is given here.

Columns and labels:
[1] = Drug uptake in brain of diet-induced obese C57BL/6J mouse model at 10 mg/kg, po administered as daily dose measured at 2 hrs post last dose on day 23; assay type: ADME, organism-based; details: in vivo
[2] = target: T1, Cannabinoid receptor 1 (Homo sapiens, UniProt P21554); test: Inverse agonist activity at human CB1 receptor expressed in HEK293 cells assessed as inhibition of forskolin-induced cAMP accumulation after 30 mins by HTRF assay; assay type: functional, cell-based
T1 sequence (P21554 whole entry): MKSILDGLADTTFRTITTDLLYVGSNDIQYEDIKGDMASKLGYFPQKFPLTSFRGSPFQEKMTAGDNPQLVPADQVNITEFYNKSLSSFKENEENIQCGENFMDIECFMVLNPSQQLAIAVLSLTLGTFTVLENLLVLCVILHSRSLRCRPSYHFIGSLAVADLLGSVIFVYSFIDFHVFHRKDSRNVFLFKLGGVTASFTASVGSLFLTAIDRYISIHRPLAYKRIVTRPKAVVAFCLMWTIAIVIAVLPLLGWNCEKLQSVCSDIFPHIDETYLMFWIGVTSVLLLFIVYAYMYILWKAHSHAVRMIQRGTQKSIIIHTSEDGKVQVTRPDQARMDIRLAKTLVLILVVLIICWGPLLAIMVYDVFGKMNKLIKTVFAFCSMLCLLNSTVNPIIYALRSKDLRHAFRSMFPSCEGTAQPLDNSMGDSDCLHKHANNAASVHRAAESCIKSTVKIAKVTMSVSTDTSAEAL

[3] = target: Cytochrome P450 3A4 (Homo sapiens, UniProt P08684); test: Inhibition of CYP3A4 in human liver microsomes using midazolam/testosterone as substrate after 10 to 30 mins by LC/MS analysis; assay type: ADME
Chain of Cytochrome P450 3A4 (P08684 whole entry): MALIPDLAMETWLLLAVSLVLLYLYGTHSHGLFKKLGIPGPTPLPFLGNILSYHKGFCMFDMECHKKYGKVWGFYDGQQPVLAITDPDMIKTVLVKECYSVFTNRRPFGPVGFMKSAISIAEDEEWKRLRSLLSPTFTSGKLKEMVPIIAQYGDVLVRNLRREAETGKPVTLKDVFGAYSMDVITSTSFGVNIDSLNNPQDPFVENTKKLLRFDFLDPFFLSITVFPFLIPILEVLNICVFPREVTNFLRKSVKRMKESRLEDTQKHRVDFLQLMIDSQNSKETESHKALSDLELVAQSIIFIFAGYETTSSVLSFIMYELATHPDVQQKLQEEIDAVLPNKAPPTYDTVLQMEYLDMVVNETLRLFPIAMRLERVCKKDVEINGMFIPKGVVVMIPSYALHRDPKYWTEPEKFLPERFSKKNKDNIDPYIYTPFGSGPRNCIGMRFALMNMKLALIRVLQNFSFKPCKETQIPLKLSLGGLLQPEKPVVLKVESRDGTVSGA

[4] = target: T1, Cannabinoid receptor 1; test: biochemical; assay type: cell-based, CHO
[5] = Drug uptake in C57BL/6J mouse plasma at 20 mg/kg, po measured after 1 hr; assay type: ADME, organism-based
[6] = Drug uptake in C57BL/6J mouse plasma at 20 mg/kg, po measured after 4 hrs; assay type: ADME, organism-based
[7] = Drug uptake in C57BL/6J mouse brain at 20 mg/kg, po measured after 4 hrs; assay type: ADME, organism-based; details: in vivo
[8] = Drug uptake in plasma of wild type CF-1 mouse at 20 mg/kg, po measured at 2 hrs post last dose on day 1; assay type: ADME, organism-based
[9] = Drug uptake in brain of wild type CF-1 mouse at 20 mg/kg, po measured at 2 hrs post last dose on day 2; assay type: ADME, organism-based; details: in vivo
[10] = Drug uptake in brain of MDR1a knockout CF-1 mouse at 20 mg/kg, po measured at 2 hrs post last dose on day 2; assay type: ADME, organism-based; details: in vivo
[11] = Ratio of drug level in brain to plasma of wild type CF-1 mouse at 20 mg/kg, po; assay type: ADME, organism-based; details: read-out: BPR
[12] = Protein binding in plasma (unknown origin); assay type: ADME, cell-free; details: unidentified, read-out: PPB
[13] = AUClast in C57BL/6J mouse at 20 mg/kg, po administered via gavage by LC-MS/MS analysis; assay type: ADME, organism-based; details: in vivo
[14] = Half life in C57BL/6J mouse at 20 mg/kg, po administered via gavage by LC-MS/MS analysis; assay type: ADME, organism-based; details: in vivo
[15] = Clearance in C57BL/6J mouse at 5 mg/kg, iv or 20 mg/kg, po administered via gavage by LC-MS/MS analysis; assay type: ADME, organism-based; details: in vivo
[16] = Oral bioavailability in C57BL/6J mouse at 20 mg/kg administered via gavage by LC-MS/MS analysis; assay type: ADME, organism-based; details: in vivo
[17] = Drug uptake in plasma of diet-induced obese C57BL/6J mouse model at 1 mg/kg, po administered as daily dose measured at 2 hrs post last dose on day 1; assay type: ADME, organism-based
[18] = Drug uptake in plasma of diet-induced obese C57BL/6J mouse model at 3 mg/kg, po administered as daily dose measured at 2 hrs post last dose on day 1; assay type: ADME, organism-based
[19] = Drug uptake in plasma of diet-induced obese C57BL/6J mouse model at 1 mg/kg, po administered as daily dose measured at 2 hrs post last dose on day 22; assay type: ADME, organism-based
[20] = Drug uptake in plasma of diet-induced obese C57BL/6J mouse model at 3 mg/kg, po administered as daily dose measured at 2 hrs post last dose on day 22; assay type: ADME, organism-based
[21] = Drug uptake in brain of diet-induced obese C57BL/6J mouse model at 1 mg/kg, po administered as daily dose measured at 2 hrs post last dose on day 2; assay type: ADME, organism-based; details: in vivo
[22] = Drug uptake in brain of diet-induced obese C57BL/6J mouse model at 10 mg/kg, po administered as daily dose measured at 2 hrs post last dose on day 2; assay type: ADME, organism-based; details: in vivo
[23] = Drug uptake in brain of diet-induced obese C57BL/6J mouse model at 3 mg/kg, po administered as daily dose measured at 2 hrs post last dose on day 23; assay type: ADME, organism-based; details: in vivo
[24] = Ratio of drug level in brain to plasma of diet-induced obese C57BL/6J mouse model at 1 mg/kg, po administered as daily dose measured at 2 hrs post last dose on day 23; assay type: ADME, organism-based; details: read-out: BPR
[25] = Ratio of drug level in brain to plasma of diet-induced obese C57BL/6J mouse model at 10 mg/kg, po administered as daily dose measured at 2 hrs post last dose on day 23; assay type: ADME, organism-based; details: read-out: BPR
[26] = test system: Mus musculus; test: Antiobesity activity in diet induced obese C57BL/6J mouse model assessed as decrease in food intake at 3 to 10 mg/kg, po administered as daily dose measured every day for 5 days and continuing every other day till day 17; assay type: functional, organism-based
[27] = test system: Mus musculus; test: Antiobesity activity in diet induced obese C57BL/6J mouse model assessed as decrease in body weight at 3 to 10 mg/kg, po administered as daily dose measured every day for 5 days and continuing every other day till day 17; assay type: functional, organism-based
[28] = test system: Mus musculus; test: Antiobesity activity in diet induced obese C57BL/6J mouse model assessed as decrease in body weight at 3 mg/kg, po administered as daily dose measured every day for 5 days and continuing every other day till day 8 and 15; assay type: functional, organism-based
[29] = Ratio of drug level in brain to plasma of diet-induced obese C57BL/6J mouse model at 10 mg/kg, po administered as daily dose measured at 2 hrs post last dose on day 1; assay type: ADME, organism-based; details: read-out: BPR
[30] = test system: Mus musculus; test: Antiobesity activity in diet induced obese C57BL/6J mouse model assessed as decrease in total cholesterol level at 3 to 10 mg/kg, po administered as daily dose measured at day 26 post last dose; assay type: functional, organism-based
[31] = test system: Mus musculus; test: Antiobesity activity in diet induced obese C57BL/6J mouse model assessed as decrease in liver fat content at 3 to 10 mg/kg, po administered as daily dose measured at day 26 post last dose; assay type: functional, organism-based

With `O=c1cc(NC2CCN(S(=O)(=O)C(F)(F)F)CC2)c2cc(C(c3ccc(Cl)cc3)c3ccc(Cl)cc3)ccc2[nH]1` the Drug uptake [1] was 0.329 nmol/g, the EC50 [2] was 8.2 to 8.3 nM and the IC50 [3] was greater than 10000 nM. It also gave an IC50 [4] of 1.3 nM, a concentration at 1 h [5] of 1720 nM and a concentration at 4 h [6] of 1940 nM. For the same compound, the Drug uptake [7] was 0.019 nmol/g, the concentration at 2 h [8] was 3920 nM and the Drug uptake [9] was 0.104 nmol/g. The Drug uptake [10] was 3.49 nmol/g, the Kp [11] was 0.027 and the fraction unbound [12] was 0.0001. The AUC(0-t) [13] was 28.4 µM·h, the half-life [14] was 7.26 h and the clearance [15] was 2.21 mL/min/kg. For the same compound, the bioavailability [16] was 13%, the concentration at 2 h [17] was 508 nM and the concentration at 2 h [18] was 1240 nM. The concentration at 2 h [19] was 843 nM, the concentration at 2 h [20] was 2550 nM and the Drug uptake [21] was less than 4 nmol/g. For the same compound, the Drug uptake [22] was 0.102 nmol/g, the Drug uptake [23] was 0.164 nmol/g and the Kp at 2 h [24] was 0.072. For the same compound, the Kp at 2 h [25] was 0.038, the Activity [26] was “Active” and the Activity [27] was “Active”. The Activity [28] was “Active”, the Kp at 2 h [29] was 0.026 and the Activity [30] was “Active”. For the same compound, the Activity [31] was “Active”.
